Source: patent US10335409B2 (priority 2012, dated 2019)
pEC50, pKi: −log10 of the molar value. Where two headings read alike, the source gives them in different places.

Tests used:
[1] = tested on: genotype 4a (ED43) stable HCV replicon in Huh-7-derived cells; assay: Stable subgenomic HCV replicon EC50, genotype 4a (Renilla luciferase); format: cell-based, hepatitis C virus; conditions: Hepatitis C virus, 72 h, read-out: EC50 4A RLUC
Summary of the method: (§1)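 Compounds, three-fold diluted, were applied to Huh-7-derived cells harbouring luciferase replicons (genotype 1a H77, 1b Con1, 2a JFH-1, 4a ED43, with strain-specific adaptive mutations). Seventy-two hours later, intracellular replication was gauged by Renilla luciferase activity and EC50 derived by regression.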

[2] = tested on: genotype 1b NS3/4a protease inhibitor resistant variant D168A transient HCV replicon in Huh-7-derived cells; assay: Transient-transfected HCV replicon EC50, genotype 1b D168A; format: cell-based, hepatitis C virus; conditions: Hepatitis C virus, 72 h, read-out: EC50 1B D168A, transient-transfected replicon genotype 1b D168A resistant variant, 72 h
[3] = tested on: genotype 3a (S52) stable HCV replicon in Huh-7-derived cells; assay: Stable subgenomic HCV replicon EC50, genotype 3a (Renilla luciferase); format: cell-based, hepatitis C virus; conditions: Hepatitis C virus, 72 h, read-out: EC50 3A RLUC
[4] = tested on: genotype 1a NS3/4a protease inhibitor resistant variant R155K transient HCV replicon in Huh-7-derived cells; assay: Transient-transfected HCV replicon EC50, genotype 1a R155K; format: cell-based, hepatitis C virus; conditions: Hepatitis C virus, 72 h, read-out: EC50 1A R155K, transient-transfected replicon genotype 1a R155K resistant variant, 72 h
[5] = tested on: genotype 1a (H77) stable HCV replicon in Huh-7-derived cells; assay: Stable subgenomic HCV replicon EC50, genotype 1a (Renilla luciferase); format: cell-based, hepatitis C virus; conditions: Hepatitis C virus, stable replicon genotype 1a, 72 h, read-out: EC50 1A RLUC
Summary of the method: as §1

[6] = tested on: genotype 2a (JFH-1) stable HCV replicon in Huh-7-derived cells; assay: Stable subgenomic HCV replicon EC50, genotype 2a (Renilla luciferase); format: cell-based, hepatitis C virus; conditions: Hepatitis C virus, stable replicon genotype 2a, 72 h, read-out: EC50 2A RLUC
Summary of the method: as §1

[7] = tested on: genotype 1b (Con1) stable HCV replicon in Huh-7-derived cells; assay: Stable subgenomic HCV replicon EC50, genotype 1b (Renilla luciferase); format: cell-based, hepatitis C virus; conditions: Hepatitis C virus, stable replicon genotype 1b, 72 h, read-out: EC50 1B RLUC
Summary of the method: as §1

[8] = tested on: genotype 3a (S52) wild type transient HCV replicon in Huh-7-derived cells; assay: Transient-transfected HCV replicon EC50, genotype 3a wild type; format: cell-based, hepatitis C virus; conditions: Hepatitis C virus; transient-transfected replicon genotype 3a wild type, 72 h; read-out: EC50 3A WT
[9] = tested on: genotype 1b (Con1) wild type transient HCV replicon in Huh-7-derived cells; assay: Transient-transfected HCV replicon EC50, genotype 1b wild type; format: cell-based, hepatitis C virus; conditions: Hepatitis C virus, 72 h, transient-transfected replicon genotype 1b wild type, read-out: EC50 1B WT
[10] = molecular target: HCV NS3 protease domain genotype 3a (Hepatitis C virus genotype 3a, UniProt Q81258); assay: Ki determination, NS3 protease genotype 3a (fluorogenic depsipeptide substrate); format: biochemical; conditions: 200 pM enzyme, NS4A peptide
Chain of HCV NS3 protease domain genotype 3a (Q81258 whole entry, looked up, the tested form may be a part): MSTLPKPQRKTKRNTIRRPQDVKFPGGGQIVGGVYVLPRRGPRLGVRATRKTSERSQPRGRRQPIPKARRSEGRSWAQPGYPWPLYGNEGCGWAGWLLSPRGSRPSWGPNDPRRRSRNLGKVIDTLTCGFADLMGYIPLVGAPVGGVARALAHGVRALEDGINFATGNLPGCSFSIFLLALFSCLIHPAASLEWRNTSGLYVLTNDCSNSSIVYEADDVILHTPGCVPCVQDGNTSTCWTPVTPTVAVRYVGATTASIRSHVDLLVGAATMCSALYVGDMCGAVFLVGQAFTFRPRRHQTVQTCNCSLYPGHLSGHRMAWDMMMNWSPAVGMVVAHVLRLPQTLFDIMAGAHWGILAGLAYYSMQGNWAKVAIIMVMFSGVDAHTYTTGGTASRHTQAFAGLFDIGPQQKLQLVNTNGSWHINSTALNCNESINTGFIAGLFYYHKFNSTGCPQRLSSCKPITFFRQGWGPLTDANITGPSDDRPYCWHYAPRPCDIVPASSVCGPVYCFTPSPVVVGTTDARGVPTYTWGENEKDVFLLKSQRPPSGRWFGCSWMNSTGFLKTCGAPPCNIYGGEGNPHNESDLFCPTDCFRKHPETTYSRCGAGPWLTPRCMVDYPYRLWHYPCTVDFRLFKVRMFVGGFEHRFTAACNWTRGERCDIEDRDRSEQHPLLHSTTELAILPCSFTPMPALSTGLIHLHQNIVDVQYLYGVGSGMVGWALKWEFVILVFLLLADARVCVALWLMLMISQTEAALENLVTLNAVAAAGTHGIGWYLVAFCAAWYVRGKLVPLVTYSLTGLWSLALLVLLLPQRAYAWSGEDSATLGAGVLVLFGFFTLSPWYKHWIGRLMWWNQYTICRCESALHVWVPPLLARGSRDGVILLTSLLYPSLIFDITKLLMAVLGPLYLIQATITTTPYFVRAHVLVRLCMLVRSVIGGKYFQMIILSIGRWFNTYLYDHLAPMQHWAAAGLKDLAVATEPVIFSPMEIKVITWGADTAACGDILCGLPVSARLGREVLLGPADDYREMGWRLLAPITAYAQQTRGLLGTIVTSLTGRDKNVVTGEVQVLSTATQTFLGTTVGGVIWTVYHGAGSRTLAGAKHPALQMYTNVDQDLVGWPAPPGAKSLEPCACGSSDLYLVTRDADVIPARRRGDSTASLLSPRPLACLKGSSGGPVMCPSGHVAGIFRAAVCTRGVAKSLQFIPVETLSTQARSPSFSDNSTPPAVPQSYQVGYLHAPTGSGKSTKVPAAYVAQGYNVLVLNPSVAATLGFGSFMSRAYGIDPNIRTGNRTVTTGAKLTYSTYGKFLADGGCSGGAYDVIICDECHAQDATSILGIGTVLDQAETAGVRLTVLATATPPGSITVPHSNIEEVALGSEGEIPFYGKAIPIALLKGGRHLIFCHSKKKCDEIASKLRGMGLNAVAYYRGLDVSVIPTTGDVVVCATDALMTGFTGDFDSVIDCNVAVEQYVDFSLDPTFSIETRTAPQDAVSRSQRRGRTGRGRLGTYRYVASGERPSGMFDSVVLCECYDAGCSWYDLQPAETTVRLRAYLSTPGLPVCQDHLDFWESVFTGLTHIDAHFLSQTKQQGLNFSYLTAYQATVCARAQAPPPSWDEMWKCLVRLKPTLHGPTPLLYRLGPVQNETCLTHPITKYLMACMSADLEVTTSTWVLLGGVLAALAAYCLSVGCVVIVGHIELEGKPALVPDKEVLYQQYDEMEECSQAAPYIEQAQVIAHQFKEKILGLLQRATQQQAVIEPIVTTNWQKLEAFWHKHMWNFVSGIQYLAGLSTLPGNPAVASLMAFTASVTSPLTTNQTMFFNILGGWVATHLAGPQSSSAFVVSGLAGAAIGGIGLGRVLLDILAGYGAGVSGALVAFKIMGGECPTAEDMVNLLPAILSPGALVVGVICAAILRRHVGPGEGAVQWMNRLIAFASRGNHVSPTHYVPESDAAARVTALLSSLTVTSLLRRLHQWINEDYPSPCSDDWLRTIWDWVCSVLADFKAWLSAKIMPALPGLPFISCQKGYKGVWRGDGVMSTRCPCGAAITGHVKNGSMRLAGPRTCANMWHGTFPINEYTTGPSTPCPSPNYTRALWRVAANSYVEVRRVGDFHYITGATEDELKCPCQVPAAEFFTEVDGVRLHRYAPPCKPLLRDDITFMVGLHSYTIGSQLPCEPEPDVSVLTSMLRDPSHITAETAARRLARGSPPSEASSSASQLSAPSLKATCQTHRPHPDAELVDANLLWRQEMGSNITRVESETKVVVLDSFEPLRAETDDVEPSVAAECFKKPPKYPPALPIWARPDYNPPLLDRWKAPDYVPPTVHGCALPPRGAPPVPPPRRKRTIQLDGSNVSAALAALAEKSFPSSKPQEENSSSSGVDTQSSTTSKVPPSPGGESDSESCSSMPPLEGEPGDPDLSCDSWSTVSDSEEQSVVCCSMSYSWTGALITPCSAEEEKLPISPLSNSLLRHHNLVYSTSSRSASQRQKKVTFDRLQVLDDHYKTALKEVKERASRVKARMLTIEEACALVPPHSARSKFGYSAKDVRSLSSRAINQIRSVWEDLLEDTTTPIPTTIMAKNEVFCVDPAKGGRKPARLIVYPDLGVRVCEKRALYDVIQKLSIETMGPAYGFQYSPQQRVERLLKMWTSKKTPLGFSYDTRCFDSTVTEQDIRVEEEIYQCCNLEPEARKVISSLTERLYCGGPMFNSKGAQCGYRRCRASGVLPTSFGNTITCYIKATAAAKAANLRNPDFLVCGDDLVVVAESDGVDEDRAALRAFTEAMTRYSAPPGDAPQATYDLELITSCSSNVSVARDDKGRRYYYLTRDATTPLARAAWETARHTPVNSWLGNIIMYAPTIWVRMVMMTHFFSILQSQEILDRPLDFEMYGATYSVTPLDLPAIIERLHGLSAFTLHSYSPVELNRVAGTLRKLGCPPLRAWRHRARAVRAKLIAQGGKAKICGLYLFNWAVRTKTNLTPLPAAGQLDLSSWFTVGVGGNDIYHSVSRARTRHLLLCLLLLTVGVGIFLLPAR
Source text: Purified NS3 protease domain (amino acids 1-181) of the genotype 1b and 3a virus were generated as above. The internally quenched fluorogenic depsipeptide substrate Ac-DED(Edans)-EEAbuΨ[COO]ASK(Dabcyl)-NH2 and a synthetic peptide containing the hydrophobic core residues of the NS4A protein cofactor ([…]; NS4A peptide) were obtained from Anaspec, Inc. (San Jose, Calif.). Other chemicals and biochemicals were of reagent grade or better and were purchased from standard suppliers.
Reactions were run at room temperature in buffer consisting of 50 mM HEPES, 40% glycerol, 0.05% Triton X-100, 10 mM DTT, and 10% DMSO. The final assay solutions contained 50 pM NS3 genotype 1 b protease or 200 pM genotype 3a protease, 20 μM NS4A peptide, and 4 μM substrate (genotype 1b) or 2 μM substrate (genotype 3a). Inhibitor concentrations varied from 100 nM to 5 pM in 3-fold dilutions, and no-inhibitor controls were included.
Compound dilutions were made in DMSO at 20× final concentration. Reaction mixtures were prepared in 96-well assay plates. A solution of enzyme and NS4A peptide in assay buffer (25 μL volume with both reagents at 4× final concentration) was mixed with 45 μL assay buffer and 5 μL of either inhibitor or DMSO, and pre-incubated at room temperature for 1 hour. The reaction was started by addition of 25 μL substrate solution at 4× final concentration. Plates were mixed vigorously for 5-10 seconds and reactions were allowed to proceed for 90 minutes, fluorescence was measured every 30 s between 90 and 120 minutes reaction time using a Tecan InfiniTe M1000 or PerkinElmer Envision multimode plate reader with an excitation wavelength of 340 nm and an emission wavelength of 490 nm.
Rates were calculated from the progress curves at steady state, in the time frame of 90-120 minutes after addition of substrate. To determine the Ki, rates were plotted as a function of inhibitor concentration, and the data were fit with equation 1 (Morrison, J. F., Biochimica et Biophysica Acta 1969, 185, 269-286) to calculate Ki^app using GraphPad Prism 5. Active fraction of enzyme was determined by active site titration with known potent inhibitors. Ki was calculated from Ki^app/(1+[[S]/Km]).

[11] = tested on: genotype 1a (H77) wild type transient HCV replicon in Huh-7-derived cells; assay: Transient-transfected HCV replicon EC50, genotype 1a wild type; format: cell-based, hepatitis C virus; conditions: Hepatitis C virus, 72 h, transient-transfected replicon genotype 1a wild type, read-out: EC50 1A WT

SMILES	pEC50 [1]	pEC50 [2]	pEC50 [3]	pEC50 [4]	pEC50 [5]	pEC50 [6]	pEC50 [7]	pEC50 [8]	pEC50 [9]	pKi [10]	pEC50 [11]	pEC50 ([2]; GETYPE1B)	pEC50 ([4]; GETYPE1A)	pEC50 ([9]; GETYPE1B)	pEC50 ([11]; GETYPE1A)
CC[C@@H]1[C@@H]2CN(C(=O)[C@H](C(C)(C)C)NC(=O)O[C@@H]3C[C@H]3CCCCCc3nc4ccc(OC)cc4nc3O2)[C@@H]1C(=O)N[C@]1(C(=O)NS(=O)(=O)C2(C)CC2)C[C@H]1C(F)F [Example 1, (1aR,5S,8S,9S,10R,22aR)-5-tert-butyl-N-[(1R,2R)-2-(difluoromethyl)-1-{[(1-methylcyclopropyl)sulfonyl]carbamoyl}cyclopropyl]-9-ethyl-14-methoxy-3,6-dioxo-1,1a,3,4,5,6,9,10,18,19,20,21,22,22a-tetradecahydro-8H-7,10-methanocyclopropa[18,19][1,10,3,6]dioxadiazacyclononadecino[11,12-b]quinoxaline-8-carboxamide]	8.51	7.77	7.34	8.31	8.36	8.39	8.41	7.77	8.66	10.15	8.49				
CC[C@@H]1[C@@H]2CN(C(=O)[C@H](C(C)(C)C)NC(=O)O[C@]3(C)C[C@H]3CCCCCc3nc4ccc(OC)cc4nc3O2)[C@@H]1C(=O)N[C@]1(C(=O)NS(=O)(=O)C2(C)CC2)C[C@H]1C(F)F [Example 7, (1aR,5S,8S,9S,10R,22aR)-5-tert-butyl-N-[(1R,2R)-2-(difluoromethyl)-1-{[(1-methylcyclopropyl)sulfonyl]carbamoyl}cyclopropyl]-9-ethyl-14-methoxy-1a-methyl-3,6-dioxo-1,1a,3,4,5,6,9,10,18,19,20,21,22,22a-tetradecahydro-8H-7,10-methanocyclopropa[18,19][1,10,3,6] dioxadiazacyclononadecino[11,12-b]quinoxaline-8-carboxamide]	8.49	7.70	7.17	8.17	8.31	8.38	8.42	7.85	8.64	10.22	8.42				
CC[C@@H]1[C@@H]2CN(C(=O)[C@H](C(C)(C)C)NC(=O)O[C@@H]3C[C@H]3CCCCC(F)(F)c3nc4ccc(OC)cc4nc3O2)[C@@H]1C(=O)N[C@]1(C(=O)NS(=O)(=O)C2(C)CC2)C[C@H]1C(F)F [Example 17, (1aR,5S,8S,9S,10R,22aR)-5-tert-butyl-N-[(1R,2R)-2-(difluoromethyl)-1-{[(1-methylcyclopropyl)sulfonyl]carbamoyl}cyclopropyl]-9-ethyl-18,18-difluoro-14-methoxy-3,6-dioxo-1,1a,3,4,5,6,9,10,18,19,20,21,22,22a-tetradecahydro-8H-7,10-methanocyclopropa[18,19][1,10,3,6]dioxadiazacyclononadecino[11,12-b]quinoxaline-8-carboxamide]	8.54	8.37	7.82	8.55	8.41	8.43	8.48	8.21	8.77	10.22	8.54				
COc1ccc2nc3c(nc2c1)O[C@H]1CN(C(=O)[C@H](C(C)(C)C)NC(=O)O[C@@H]2C[C@H]2CCCCC3)[C@H](C(=O)N[C@]2(C(=O)NS(=O)(=O)C3(C)CC3)C[C@H]2C(F)F)[C@@H]1Cc1ccccc1 [Example 32]	7.52		5.64		7.23	7.46	7.52			9.06		6.19	6.26	7.85	7.36
CC[C@@H]1[C@@H]2CN(C(=O)[C@H](C(C)(C)C)NC(=O)O[C@@H]3C[C@H]3CCCC3CC3c3nc4ccc(OC)cc4nc3O2)[C@@H]1C(=O)N[C@]1(C(=O)NS(=O)(=O)C2(C)CC2)C[C@H]1C(F)F (stereo partly drawn) [Example 36, (1aR,5S,8S,9S,10R,21aR)-5-tert-butyl-N-[(1R,2R)-2-(difluoromethyl)-1-{[(1-methylcyclopropyl)sulfonyl]carbamoyl}cyclopropyl]-9-ethyl-14-methoxy-3,6-dioxo-1a,3,4,5,6,9,10,17b,18,18a, 19,20,21,21a-tetradecahydro-1H,8H-7,10-methanodicyclopropa[13,14:18,19][1,10,3,6]dioxadiazacyclononadecino[11,12-b]quinoxaline-8-carboxamide]	8.04	6.48	6.23	6.57	7.64	7.28	7.85	6.89	8.03	8.77	7.80				
CC[C@]12C[C@@H]1CCCCCc1nc3ccc(OC)cc3nc1O[C@H]1CN(C(=O)[C@H](C(C)(C)C)NC(=O)O2)[C@H](C(=O)N[C@]2(C(=O)NS(=O)(=O)C3(C)CC3)C[C@H]2C(F)F)[C@@H]1C [Example 42, (1aS,5S,8S,9S,10R,22aS)-5-tert-butyl-N-[(1R,2R)-2-(difluoromethyl)-1-{[(1-methylcyclopropyl)sulfonyl]carbamoyl}cyclopropyl]-1a-ethyl-14-methoxy-9-methyl-3,6-dioxo-1,1a,3,4,5,6,9,10,18,19,20,21,22,22a-tetradecahydro-8H-7,10-methanocyclopropa[18,19][1,10,3,6]dioxadiazacyclononadecino[11,12-b]quinoxaline-8-carboxamide]	7.85	6.96	6.46	7.46	7.70	7.77	7.80		8.00	9.12	7.77				
CC[C@@]12C[C@H]1CCCCCc1nc3ccc(OC)cc3nc1O[C@H]1CN(C(=O)[C@H](C(C)(C)C)NC(=O)O2)[C@H](C(=O)N[C@]2(C(=O)NS(=O)(=O)C3(C)CC3)C[C@H]2C(F)F)[C@@H]1C [Example 43, (1aR,5S,8S,9S,10R,22aR)-5-tert-butyl-N-[(1R,2R)-2-(difluoromethyl)-1-{[(1-methylcyclopropyl)sulfonyl]carbamoyl}cyclopropyl]-1a-ethyl-14-methoxy-9-methyl-3,6-dioxo-1,1a,3,4,5,6,9,10,18,19,20,21,22,22a-tetradecahydro-8H-7,10-methanocyclopropa[18,19][1,10,3,6]dioxadiazacyclononadecino[11,12-b]quinoxaline-8-carboxamide]	8.44	7.39	7.04	8.06	8.31	8.28	8.42		8.62	9.80	8.42				
